Bounds are passed on as bounds.

In one experiment the target is calcineurin (Homo sapiens, UniProt P62937+P63098+Q08209).
The target of the next experiment is cyclophilin A (CypA) (Homo sapiens, UniProt P62937). The experiment can be described thus: PPIase inhibition. It counts as biochemical. The conditions noted are these: PPIase assay, Table S2. How it is done:
From the activity against the inhibitor concentrations, the IC50 and the K i value were determined with nonlinear curve fitting according to the models of Morrison^[ [41] ^] and Murphy.^[ [42] ^]

In experiment [1] the target is T1, human neutrophil elastase (Homo sapiens, UniProt P08246).
T1 construct: purchased Merck/Calbiochem
T1 sequence (P08246 30-267): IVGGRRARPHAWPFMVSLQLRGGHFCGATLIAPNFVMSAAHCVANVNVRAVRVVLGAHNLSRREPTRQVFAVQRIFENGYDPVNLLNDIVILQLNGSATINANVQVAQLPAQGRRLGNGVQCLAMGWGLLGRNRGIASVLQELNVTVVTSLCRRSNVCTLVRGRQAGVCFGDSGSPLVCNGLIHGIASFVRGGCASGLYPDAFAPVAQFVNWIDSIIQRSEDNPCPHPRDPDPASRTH
Briefly: Enzymatic cleavage of elastase-responsive peptide and PEG-AAPV conjugate. It counts as biochemical. As to conditions: 7 mmol/L AAPV peptide, 20 nmol/L human neutrophil elastase, PBS pH 7.4, 37 °C, analytical HPLC. How it is done:
starPEG-peptide conjugate with full starPEG arm saturation by the leukocyte elastas e responsive AAPV peptide was added to the reaction solution in 4-fold excess, to finally result […]
The reaction mixture was directly used for hydrogel format ion.
S1.3. Supplement –Basic analysis
Enzymatic clea vage of el astase- responsive peptide and PEG-AAPV conjug ate To analyze leuko cyte elastase mediated hydrolysis of the responsive peptide and the corresponding conjugate, 7 mmol L -1 AAPV peptide or 0.7 mmol L -1 starPEG-AAPV conjugate w er e incub ated with 20 nmol L -1 human neutrophil el astase in PBS, pH 7.4 at 37°C.
The enzymatic reaction was evaluated after indicated timepoints by analytical HPLC, followed by integral anal ysis of the peak signals for educt and cleavage products.
Inhibition of leukocyte el astaseby heparin
To evaluate the influence of the hydrogel component heparin on the activity of leukocyte elastase, samples with heparin sodium salt concentrations of 0.001- 1 000µg mL -1 were prepared in 50mmol L -1 Tris-HCl pH 7.4 supplemented with 100mmol L -1 NaCl and 0.1% BSA and pre-incubated with 10nmol L -1 leukocyte elastase for 5 min. […]

The next experiment relates to human leukocyte elastase. Briefly: Inhibition of leukocyte elastase by heparin. The class given is biochemical. The conditions noted are these: U-shaped, heparin 0.01–5 µg/mL (≈0.002–1 U/mL); 10 nmol/L elastase, 250 µmol/L MeOSuc-Ala-Ala-Pro-Val-pNA, Tris-HCl pH 7.4, 100 mmol/L NaCl, 0.1% BSA, 5 min pre-incubation, 37 °C, 30 min, 405 nm; normalized to control without heparin; mean ± SD of n=2. As for the experimental part:
Figure S2: Inhibition of leukocyte elastase by heparin. A concentration of 10 nmol L-1 human leukocyte elastase was used to cleave 250 µmol L -1 chromogenic substrate in the presence of different heparin concentrations. The substrate cleavage was monitored photometrically at a wavelength of 405nm by the release of p- nitroaniline from the chromogenic substrate methoxysuccinyl-Ala-Al a-Pro-V al-pNA over 30 min. Values were normalized to a cont rol sample without heparin; mean ± SD of n=2.
(1 picture or pasted object on this page, not shown here) […]
The enzymatic reaction was evaluated after indicated timepoints by analytical HPLC, followed by integral anal ysis of the peak signals for educt and cleavage products. […]
To evaluate the influence of the hydrogel component heparin on the activity of leukocyte elastase, samples with heparin sodium salt concentrations of 0.001- 1 000µg mL -1 were prepared in 50mmol L -1 Tris-HCl pH 7.4 supplemented with 100mmol L -1 NaCl and 0.1% BSA and pre-incubated with 10nmol L -1 leukocyte elastase for 5 min. Subsequently, the cleavage of 250 µmol L-1 chromogenic substrate MeOSuc-Ala-Ala-Pro-V al-pNA by leukocyte elastase in the presence of the different heparin concentrations was measured as reaction kinetic at 37°C for 30min using the Spark TM 10M multimode microplate reader (Tecan) at 405 nm and c ompared to a cont rol without heparin.

Another experiment deals with α1‐antitrypsin. As to conditions: cited from earlier work. An excerpt: (§1) The heparin component of the hydrogel matrix provides favorable additional anti‐inflammatory properties and interacts with the cleaving enzyme in different ways: Elastase has an anion binding site, which mediates binding to the DNA in neutrophil extracellular traps (NETs), to heparin and heparan sulfates, and also leads to accumulation at the hydrogel.^[ [21] ^] […] Additionally, direct inhibition of elastase acti ...

Another experiment concerns elastase. As to conditions: cited from earlier work.
Text: as §1

Experiment [2] concerns the target C5a receptor (C5aR1 or CD88). The conditions noted are these: C5a receptor inhibitor; read-out: IC50 of PMX53; cited from earlier work. The text has this: PMX53 is derived from the C‐terminus of the C5a fragment. Therefore, N‐terminal sequence extension by a glycine spacer and a cysteine group appeared possible without loss of activity.^[ [19], [30] ^] (Table S1, Supporting Information). The obtained peptide was linked to the elastase‐responsive hydrogel platform as an anti‐inflammatory feedback control system. The low IC50 concentration (IC50 = 20 nmol L^−1[ [19] ^]) allowed for a low functionalization degree at the hydrogel of only 2% of the starPEG‐AAPV‐arms.

Another experiment has as its system leukocyte. Also noted: method as in PMID 10354404. As to conditions: specific for C5aR1; cited from earlier work.
The test system of another experiment is complement system. Briefly: Complement activation in whole blood with zymosan (C5a ELISA). It counts as cell-based, human. As to conditions: zymosan 10 µg/mL, 30 min, 37 °C, 4W9A alone and conjugated to cleavage fragment (Figure S4, 10 µmol/L, n = 3). How it is done: Figure 3 Cleavage of inflammation‐responsive hydrogels in an in vitro inflammation model and assessment of the anti‐inflammatory effects of the released drugs. A) For hydrogel cleavage, isolated polymorphonuclear granulocytes (PMN) are activated with complement‐opsonized zymosan (OPZ) in cell culture media and incubated with the hydrogel over 2 h at 37 °C. The cell‐free supernatant containing the released bioactive is used to test the anti‐inflammatory effect in the corresponding system. B) 4W9A: Measurement of complement activation in whole blood activated with zymosan. C) PMX53: Activation of isolated PMN by zymosan activated serum, measured as CD11b expression (*P < 0.05, **P < 0.01 in t‐test).
The amount of Atto488 released from the hydrogel as a model drug was determined by fluorescence measurement at λ ex. = 485 nm/λ em. = 535 nm against an Atto488 standard. […] Cell activation was determined by flow cytometry using CD11b‐VioBlue staining (Biolegend) for isolated granulocytes and additionally CD14‐APC and CD41a‐FITC (both BD Biosciences, New Jersey, USA) for whole blood samples. Leukocyte elastase and C5a concentrations were determined using the commercial ELISA kits Hycult human elastase ELISA (Hycult Biotech, Uden, Netherlands) and C5a micro ELISA (DRG, Marburg, Germany) according to the manufactures instructions.

The test system of another experiment is extracellular CypA. The conditions noted are these: cited from earlier work.

Sequence of calcineurin (P63098 whole entry, other chains not shown): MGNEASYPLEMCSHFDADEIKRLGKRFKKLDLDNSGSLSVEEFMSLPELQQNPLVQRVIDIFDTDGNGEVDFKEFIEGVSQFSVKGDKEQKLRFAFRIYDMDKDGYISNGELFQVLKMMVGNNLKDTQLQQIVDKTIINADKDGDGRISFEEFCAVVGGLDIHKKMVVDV
Sequence of calcineurin (P62937 whole entry, other chains not shown): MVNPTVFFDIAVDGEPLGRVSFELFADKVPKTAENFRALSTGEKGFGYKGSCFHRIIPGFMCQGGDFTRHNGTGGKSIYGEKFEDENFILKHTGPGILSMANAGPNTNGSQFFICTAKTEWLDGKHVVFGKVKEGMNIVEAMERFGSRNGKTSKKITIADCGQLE
Sequence of cyclophilin A (CypA) (P62937 whole entry): as the sequence (P62937 whole entry, other chains not shown) above

`CC[C@@H]1NC(=O)[C@H]([C@H](O)[C@H](C)Cc2nc3cc(C(=O)N[C@H](CCC(=O)O)C(=O)N[C@H](CCC(=O)O)C(=O)N[C@H](CCC(=O)O)C(=O)N[C@H](CCC(=O)O)C(=O)N[C@H](CCC(=O)O)C(=O)N[C@H](CCC(=O)O)C(=O)NCC(=O)N[C@@H](CCCCN)C(=O)NCC(=O)N[C@@H](C)C(=O)N[C@@H](C)C(=O)N4CCC[C@H]4C(=O)N[C@H](C(=O)NCC(=O)NCC(=O)N[C@@H](CS)C(N)=O)C(C)C)ccc3[nH]2)N(C)C(=O)[C@H](C(C)C)N(C)C(=O)[C@H](CC(C)C)N(C)C(=O)[C@H](CC(C)C)N(C)C(=O)[C@@H](C)NC(=O)[C@H](C)NC(=O)[C@H](CC(C)C)N(C)C(=O)[C@H](C(C)C)NC(=O)[C@H](CC(C)C)N(C)C(=O)CN(C)C1=O` [MM623]: the “calcineurin: concentration up to which no inhibition was found” value on calcineurin is at least 20 µmol/L. On cyclophilin A (CypA), the “CypA inhibition compared with MM284” value is on record as “comparable to MM284”. For the molecule H2N-GWGAAPV-↑-RGGCG-CONH2, the “cleavage rate of the free peptide by elastase” value in experiment [1] turned out to be 0.36 s⁻¹. As to heparin, in the experiment on human leukocyte elastase, the “suppression of elastase activity to (residual activity)” value was “about 50%”. In the experiment with α1‐antitrypsin, the α1-antitrypsin activity entry was “decreases the activity of α1‐antitrypsin”. Also, the “elastase activity inhibition by heparin binding” value in the experiment on elastase is “direct inhibition of elastase activity by heparin binding has been reported”. For the molecule PMX53, the IC50 in experiment [2] was 20 nM. The “effect on leukocyte stimulation by cytokines, leukotriene B4, endotoxins, or formylated peptides” value with leukocyte is listed as “has no effect on leukocyte stimulation by cytokines, leukotriene B4, endotoxins, or formylated peptides”. For the molecule “Mal-l[CVWQDWGAHRC]-T-CONH2 (disulfide) [4W9A]”, in the experiment with complement system, the “inhibitor concentration that should be exceeded for complement inhibition” value was over 2 µmol/L. Take `CC[C@@H]1NC(=O)[C@H]([C@H](O)[C@H](C)Cc2nc3cc(C(=O)O)ccc3[nH]2)N(C)C(=O)[C@H](C(C)C)N(C)C(=O)[C@H](CC(C)C)N(C)C(=O)[C@H](CC(C)C)N(C)C(=O)[C@@H](C)NC(=O)[C@H](C)NC(=O)[C@H](CC(C)C)N(C)C(=O)[C@H](C(C)C)NC(=O)[C@H](CC(C)C)N(C)C(=O)CN(C)C1=O` [MM284]: the “extracellular CypA inhibition / immunosuppression” value in the experiment on extracellular CypA is “inhibits extracellular CypA, providing anti‐inflammatory without immunosuppressive activity”. Besides, the “calcineurin: concentration up to which no inhibition was found” value on calcineurin is at least 15 µmol/L.

The values are drawn from article PMC9982591, “Inflammation‐Controlled Anti‐Inflammatory Hydrogels” (Advanced Science, 2022).
